Assay results taken from PMC8895377, “In Vivo Targeting Replication Protein A for Cancer Therapy” (Frontiers in Oncology, 2022).

Experiments:
[1] = tested on: H460 cells; assay: Chou-Talalay combination studies with RPAi 329; type: cell-based, human; details: H460, combination with RPAi 329
Description: To assess synergy, the combination index (CI) was determined as described by Chou-Talalay as we have previously described ([8]). Briefly, H460 cells were treated with RPAi and the indicated agent alone and in combination. […] The data from both the single-agent treatments and the combination treatment were used to calculate the CI and plot this value as a function of the fraction of cells affected (Fa). A CI of >1 indicates antagonism between the two agents, while a CI <1 indicates synergy.
(A) Chou-Talalay analysis of combination with chemotherapeutics. […] (B) Chou-Talalay analysis of combination with DDR-targeted agents as described in panel (A).

[2] = tested on: H460 cells; assay: DNA fiber analysis of replication fork dynamics; type: cell-based, human
Description: Analysis of DNA replication intermediates was performed as previously described with minor modifications ([11], [12]). H460 cells were seeded in 6-well plates at a density of 2 × 10^5 cells. […] After harvesting, the cells were resuspended in PBS at a concentration of 1,000,000 cells/ml, and 2 µl of the cell suspension was mixed with 8 µl of lysis buffer (200 mM Tris-HCl pH 7.5, 50 mM EDTA, 0.5% SDS) on a Superfrost Plus microscope slide (Fisher Scientific). After 6 min of incubation, the slides were tilted at a 45-degree angle to allow cell lysates to slowly run down the slide. After air-drying, the slides were fixed in methanol:acetic acid (3:1) and stored at 4°C. DNA fibers were denatured with 2.5N HCl for 1 h, washed with PBS, and blocked with 5% BSA in PBS-T (PBS + 0.1% Tween-20) for 1 h. […] Excess antibodies were removed by washing with PBS-T 3 times. After air-drying, the slides were mounted onto a coverslip with mounting medium. Fiber tracts were imaged with a Nikon epifluorescence microscope using a 40× oil immersion objective, and 100 fibers for each group were analyzed in ImageJ where the ratios of CldU : IdU were compared using pixel length. Data were analyzed by ANOVA with Bonferroni test for multiple comparisons.
(A) Schematic depiction of experimental design. DNA was pulse-labeled with IdU for 20 min. After IdU removal, replication forks were stalled by the addition of HU or left to replicate with vehicle treatment. HU was removed, and replication was labeled with CldU. Following CldU, cells were treated with the DDRi or vehicle. […] Data presented are combined from three individual experiments (100 fibers analyzed per experiment; 300 fibers total). Red bar indicates the median value of CldU/IdU.

[3] = biological target: T1, RPA–DNA interaction (purified full-length RPA) (Homo sapiens, UniProt P27694); assay: EMSA of RPA–DNA interaction inhibition; type: binding; details: 6.25, 12.5, 25, 50 µM RPAi
T1 construct: Purified full-length RPA (120 ng) was incubated with the indicated RPAi
T1 sequence (P27694 whole entry): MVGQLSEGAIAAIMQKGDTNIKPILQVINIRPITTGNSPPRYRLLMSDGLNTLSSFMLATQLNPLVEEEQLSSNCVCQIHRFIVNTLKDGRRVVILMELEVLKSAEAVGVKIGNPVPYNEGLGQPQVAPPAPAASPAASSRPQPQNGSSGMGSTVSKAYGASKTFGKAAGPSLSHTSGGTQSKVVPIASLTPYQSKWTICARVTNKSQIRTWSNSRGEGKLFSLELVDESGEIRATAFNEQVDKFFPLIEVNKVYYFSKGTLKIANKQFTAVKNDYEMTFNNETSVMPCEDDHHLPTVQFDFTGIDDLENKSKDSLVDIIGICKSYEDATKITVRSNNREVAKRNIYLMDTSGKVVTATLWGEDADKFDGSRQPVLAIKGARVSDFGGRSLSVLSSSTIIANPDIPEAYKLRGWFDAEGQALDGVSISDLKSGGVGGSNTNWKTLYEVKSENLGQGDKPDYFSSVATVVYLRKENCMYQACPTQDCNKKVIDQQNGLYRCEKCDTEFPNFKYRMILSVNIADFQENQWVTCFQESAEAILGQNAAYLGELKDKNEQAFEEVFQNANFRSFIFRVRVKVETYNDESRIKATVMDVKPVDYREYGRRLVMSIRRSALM
T1 sequence (P15927 whole entry partner): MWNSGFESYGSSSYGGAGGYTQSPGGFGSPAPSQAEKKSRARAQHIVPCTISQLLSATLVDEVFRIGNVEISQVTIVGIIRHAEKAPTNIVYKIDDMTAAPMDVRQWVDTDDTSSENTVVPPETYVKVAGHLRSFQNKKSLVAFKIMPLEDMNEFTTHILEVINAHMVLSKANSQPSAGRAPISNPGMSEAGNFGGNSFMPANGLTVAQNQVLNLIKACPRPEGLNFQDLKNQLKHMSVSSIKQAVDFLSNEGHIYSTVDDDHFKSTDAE
T1 sequence (P35244 whole entry partner): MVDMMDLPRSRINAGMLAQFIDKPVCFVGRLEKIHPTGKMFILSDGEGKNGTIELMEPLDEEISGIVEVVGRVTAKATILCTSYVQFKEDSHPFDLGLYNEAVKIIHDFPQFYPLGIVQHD
Description: (§1) EMSAs were performed as previously described ([9]). Briefly, reactions were conducted in 20 mM HEPES (pH 7.8), 1 mM DTT, 0.001% NP-40, and 50 mM NaCl. RPAis were suspended in 100% dimethlysulfoxide (DMSO), and DMSO concentration in the final reaction mixture was constant at less than 5%. Purified full-length RPA (120 ng) was incubated with the indicated RPAi or vehicle in reaction buffer for 30 min before the addition of the [^32]P-labeled 34-base ssDNA probe. Reactions were incubated for 5 min at room temperature, and products were separated via 6% native polyacrylamide gel electrophoresis. The bound and unbound fractions were quantified by phosphor-imager analysis using ImageQuant software (Molecular Dynamics, CA), and data were fit by non-linear regression using GraphPad Prism.
(§2) Figure 2 Replication protein A inhibitor (RPAi) inhibitory activity. (A) Chemical structure of RPAi’s 329 and 2004. (B) EMSA analysis of RPA–DNA interaction inhibition by 329 and 2004. Lanes 3–6 in each panel contain 6.25, 12.5, 25, and 50 µM of the indicated RPAi, respectively. The * indicates the position of the Escherichia coli SSB–single-stranded DNA (ssDNA) complex that serves as an internal specificity control. (C) Cell viability of H460 NSCLC cells in response to 329 and 2004.

[4] = parameters: method as in PMID 32550990; details: cited from earlier work
[5] = tested on: A549 adenocarcinoma and H460 large cell carcinoma; parameters: method as in doi:10.1101/2020.11.30.404640; details: both models, differing dosing regimens, DMSO/Tween; cited from earlier work
[6] = tested on: H460 NSCLC cells; assay: CCK-8 viability assay; type: cell-based, human; details: H460, 48 h, compared to 551 predecessor
Description: Cell lines were obtained from ATCC and maintained as monolayer cultures in RPMI 1640 medium (H460) or Dulbecco’s Modified Eagle's Medium (DMEM) (A549) supplemented with 10% fetal bovine serum. H460 and A549 cells were plated at 2.5 × 10^3 cells/well and A2780 and GCT27 cells plated at 5 × 10^3 cells/well in a 96-well plate and incubated for 18–24 h prior to treatments. Cells were treated with the indicated concentration of RPAi for 48 h. The vehicle (DMSO) concentration was held constant at 1%. Cell metabolism/viability was assessed by a mitochondrial metabolism assay (CCK-8) as we have described previously ([10]). The generation of the water-soluble formazan product by cellular dehydrogenases is proportional to the number of living cells. Following incubation with CCK-8 reagent, absorbance was measured at 450 nm with a BioTek Synergy H1 plate reader. Values were compared to those of vehicle-treated controls to determine percent viability, and the results represent the average and SEM of triplicate determinations.

[7] = biological target: Escherichia coli single strand binding protein (SSB) (Escherichia coli, UniProt P0AGE0); assay: EMSA internal specificity control, SSB–ssDNA complex; details: internal specificity control in EMSA
Sequence of Escherichia coli single strand binding protein (SSB) (P0AGE0 2-178): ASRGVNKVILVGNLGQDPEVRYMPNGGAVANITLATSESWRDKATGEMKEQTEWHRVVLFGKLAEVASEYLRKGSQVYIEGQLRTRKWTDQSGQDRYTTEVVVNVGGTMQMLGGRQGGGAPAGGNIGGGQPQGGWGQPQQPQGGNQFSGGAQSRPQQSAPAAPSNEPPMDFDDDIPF
Description: as §1, §2

[8] = tested on: lung cancer xenograft models; details: cited from earlier work
[9] = tested on: H460 cells; assay: Caspase 3/7 apoptosis assay; type: cell-based, human; details: H460, 24 h
Description: Apoptosis induction was determined by activation of Caspases 3 and 7 using the CellEvent™ Caspase-3/7 Green Detection Reagent (Invitrogen). H460 cells were plated at 5 × 10^3 cells/well in black 96-well plates with clear bottoms (Costar) and incubated for 24 h prior to treatments. Cells were treated with the indicated concentration of RPAi or cisplatin for 24 h. The vehicle (DMSO) concentration was held constant at 1% for RPAi treatments. For caspase 3/7 detection, medium was removed and replaced with phosphate buffered saline (PBS) containing 5% fetal bovine serum (FBS) and 2 µM CellEvent™ Caspase-3/7 Green Detection Reagent. Cells were incubated at 37°C/5% CO2 for 1 h, and fluorescence intensity was measured in a BioTek Synergy H1 plate reader (excitation/emission 485/528). Images were captured with an Evos FL2 Auto microscope (Invitrogen) using a 10× objective.
Figure 3 The 329 induction of apoptotic cell death. (A) Analysis of caspase 3/7 activity in H460 cells following 24 h of treatment with 1% DMSO or the indicated concentrations of 329. Fluorescence images were captured as described in the Materials and Methods. (B) Quantification of caspase 3/7 activity. Fluorescence was measured in 96-well plates using a Biotek Synergy H1 plate reader following 24-h incubation with the indicated drugs and concentrations.

[10] = cited from earlier work

Q: For `O=C1NC(=O)c2c1c(-c1ccccc1Cl)cc1[nH]c3ccc(O)cc3c21` [Wee1 inhibitor], which “synergy with RPAi 329 (Chou-Talalay)” value [1] is on record?
A: Its value is “antagonistic or additive”.

Q: With `N=C1NC(=O)/C(=C/c2ccc(O)cc2)S1` [mirin] as the compound, how does the “reversal of the CldU/IdU decrease” value ([2]; H460, HU then ATRi or RPAi) read?
A: Its value is “reversible”.

Q: With `CCOc1ccc2cc(C3CC(c4ccc(Br)cc4)=NN3C(=O)CCCC(=O)NCCCN3CCOCC3)c(Cl)nc2c1` (centres unmarked) [compound 2004] as the compound, how does the “RPA inhibitory activity (RPA–DNA interaction, EMSA)” value [3] read?
A: The value was “potent RPA inhibitory activity”.

Q: What about the “solubility, cellular uptake, and physicochemical properties” value [4] of the same compound?
A: Its value is “excellent”.

Q: What about the “single-agent anticancer activity in vivo” value [5] of the same compound?
A: Its value is “only modest single-agent anticancer activity”.

Q: And the “single-agent cellular anticancer activity (CCK-8)” value [6]?
A: The value was “potent single-agent activity”.

Q: And the “interaction of E. coli SSB with ssDNA” value [7]?
A: Its value is “not impacted”.

Q: What does the source list for `CNCc1ccc(-c2cc(-c3nc(-c4ccc(S(=O)(=O)C(C)C)cc4)cnc3N)on2)cc1` [VE-822]?
A: CldU/IdU signal after HU ([2]; H460, HU 2.5 mM then 329 50 µM or VE-822 2 µM): significant decrease in CldU/IdU signal; CldU/IdU, inhibitor alone ([2]; H460, without HU, 329 50 µM, VE-822 2 µM, 2 h): minimal effects

Q: With `Cn1ncnc1[C@H]1c2n[nH]c(=O)c3cc(F)cc(c23)N[C@@H]1c1ccc(F)cc1` [BMN637] as the compound, how does the “synergy with RPAi 329 (Chou-Talalay)” value [1] read?
A: The value was “modest synergy”.

Q: For `CCOc1ccc2cc(C3CC(c4ccc(I)cc4)=NN3C(=O)CCCC(=O)O)c(Cl)nc2c1` (centres unmarked) [compound 551], which “tumor growth delay, combination with carboplatin” value ([8]; NSCLC xenograft models, reduced doses of carboplatin and 551, versus each agent alone) is on record?
A: Its value is “greater than additive effect on tumor growth delay”.

Q: What about the in vivo activity [8] of the same compound?
A: The in vivo activity was “modest in vivo activity”.

Q: What about the “activation of caspases 3 and 7” value [9] of the same compound?
A: The value was “inability to detect caspase activity”.

Q: What about the “caspase activation or annexin V/PI positivity” value [10] of the same compound?
A: Its value is “not accompanied by caspase activation or annexin V/PI positivity”.
